Legend:
morningglory = assay: Test B pre/postemergence morningglory; format: in vivo, Ipomoea hederacea
Procedure, shortened: (§1)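 Test chemicals in a non-phytotoxic solvent mixture with surfactant were sprayed preemergence onto planted seeds and postemergence onto plants 2 to 18 cm tall (1- to 4-leaf stage). After twelve to sixteen days in a greenhouse, injury was visually rated against untreated controls from 0 (no effect) to 10 (complete control).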

giant foxtail = assay: Test B pre/postemergence giant foxtail; format: in vivo, Setaria faberii
Procedure, shortened: as §1

purple nutsedge = assay: Test B pre/postemergence purple nutsedge; format: in vivo, Cyperus rotundus
Procedure, shortened: as §1

rape = assay: Test B pre/postemergence rape; format: in vivo, Brassica napus
Procedure, shortened: as §1

velvetleaf = assay: Test B pre/postemergence velvetleaf; format: in vivo, Abutilon theophrasti
Procedure, shortened: as §1

blackgrass = assay: Test B pre/postemergence blackgrass; format: in vivo, Alopecurus myosuroides
Procedure, shortened: as §1

wild oat = assay: Test B pre/postemergence wild oat; format: in vivo, Avena fatua
Procedure, shortened: as §1

surinam grass = assay: Test B pre/postemergence surinam grass; format: in vivo, Brachiaria decumbens
Procedure, shortened: as §1

corn = assay: Test B pre/postemergence corn; format: in vivo, Zea mays
Procedure, shortened: as §1

bedstraw = assay: Test B pre/postemergence bedstraw; format: in vivo, Galium aparine; conditions: Rate 250 g/ha, Postemergence; scale of 0 to 10 where 0 is no effect and 10 is complete control
Procedure, shortened: as §1

pigweed = assay: Test B pre/postemergence pigweed; format: in vivo, Amaranthus retroflexus
Procedure, shortened: as §1

crabgrass = assay: Test B pre/postemergence crabgrass; format: in vivo, Digitaria sanguinalis
Procedure, shortened: as §1

wheat = assay: Test B pre/postemergence wheat; format: in vivo, Triticum aestivum
Procedure, shortened: as §1

cocklebur = assay: Test B pre/postemergence cocklebur; format: in vivo, Xanthium strumarium
Procedure, shortened: as §1

soybean = assay: Test B pre/postemergence soybean; format: in vivo, Glycine max
Procedure, shortened: as §1

sugar beet = assay: Test B pre/postemergence sugar beet; format: in vivo, Beta vulgaris
Procedure, shortened: as §1

[1] = Postemergence, Rate 62 g/ha, scale of 0 to 10, 0 is no effect, 10 is complete control
[2] = Postemergence, Rate 125 g/ha, scale 0 to 10, 0 is no effect, 10 is complete control
[3] = Postemergence, Rate 500 g/ha, scale 0 to 10, 0 is no effect, 10 is complete control
[4] = Preemergence, Rate 62 g/ha, scale of 0 to 10 where 0 is no effect and 10 is complete control
[5] = Preemergence, Rate 125 g/ha, scale 0 to 10, 0 is no effect, 10 is complete control
[6] = Preemergence, Rate 500 g/ha, scale of 0 to 10 where 0 is no effect and 10 is complete control
[7] = Rate 250 g/ha, Postemergence, scale of 0 to 10 where 0 is no effect and 10 is complete control

CCC(=O)Cn1c(=O)on(C(=O)N(c2ccc(F)cc2F)C(C)C)c1=O [Compound 524]
Morningglory plant response rating (morningglory; [1]): 0 | Morningglory plant response rating (morningglory; [2]): 2 | Plant response rating, Morningglory (morningglory; [3]): 2 | Plant response rating, Morningglory (morningglory; [4]): 0 | Morningglory plant response rating (morningglory; [5]): 0 | Morningglory plant response rating (0 to 10 scale) (morningglory; Preemergence, Rate 250 g/ha): 2 | Morningglory plant response rating (morningglory; [6]): 2 | Plant response rating, Morningglory (morningglory; [7]): 2 | Giant foxtail plant response rating (giant foxtail; [1]): 4 | Giant foxtail plant response rating (giant foxtail; [2]): 8 | Plant response rating, Giant foxtail (giant foxtail; [3]): 9 | Plant response rating, Giant foxtail (giant foxtail; [4]): 9 | Giant foxtail plant response rating (giant foxtail; [5]): 9 | Giant foxtail plant response rating (0 to 10 scale) (giant foxtail; Preemergence, Rate 250 g/ha): 9 | Giant foxtail plant response rating (giant foxtail; [6]): 10 | Plant response rating, Giant foxtail (giant foxtail; [7]): 8 | Plant response rating, Nutsedge (purple nutsedge; [3]): 0 | Plant response rating, Nutsedge (purple nutsedge; [4]): 0 | Nutsedge plant response rating (purple nutsedge; [5]): 0 | Nutsedge plant response rating (0 to 10 scale) (purple nutsedge; Preemergence, Rate 250 g/ha): 0 | Nutsedge plant response rating (purple nutsedge; [6]): 4 | Rape plant response rating (rape; [1]): 0 | Rape plant response rating (rape; [2]): 0 | Plant response rating, Rape (rape; [3]): 3 | Plant response rating, Rape (rape; [4]): 2 | Rape plant response rating (rape; [5]): 2 | Rape plant response rating (0 to 10 scale) (rape; Preemergence, Rate 250 g/ha): 7 | Plant response rating, Rape (rape; [7]): 0 | Velvetleaf plant response rating (velvetleaf; [1]): 0 | Velvetleaf plant response rating (velvetleaf; [2]): 0 | Plant response rating, Velvetleaf (velvetleaf; [3]): 6 | Plant response rating, Velvetleaf (velvetleaf; [4]): 0 | Velvetleaf plant response rating (velvetleaf; [5]): 3 | Velvetleaf plant response rating (0 to 10 scale) (velvetleaf; Preemergence, Rate 250 g/ha): 4 | Velvetleaf plant response rating (velvetleaf; [6]): 4 | Plant response rating, Velvetleaf (velvetleaf; [7]): 5 | Blackgrass plant response rating (blackgrass; [1]): 0 | Blackgrass plant response rating (blackgrass; [2]): 2 | Plant response rating, Blackgrass (blackgrass; [3]): 8 | Plant response rating, Blackgrass (blackgrass; [4]): 4 | Blackgrass plant response rating (blackgrass; [5]): 4 | Blackgrass plant response rating (0 to 10 scale) (blackgrass; Preemergence, Rate 250 g/ha): 4 | Plant response rating, Blackgrass (blackgrass; [7]): 9 | Wild oats plant response rating (wild oat; [1]): 0 | Wild oats plant response rating (wild oat; [2]): 0 | Plant response rating, Wild oats (wild oat; [3]): 5 | Plant response rating, Wild oats (wild oat; [4]): 7 | Wild oats plant response rating (wild oat; [5]): 9 | Wild oats plant response rating (0 to 10 scale) (wild oat; Preemergence, Rate 250 g/ha): 8 | Plant response rating, Wild oats (wild oat; [7]): 0 | B. signalgrass plant response rating (surinam grass; [1]): 0 | B. signalgrass plant response rating (surinam grass; [2]): 0 | Plant response rating, B. signalgrass (surinam grass; [3]): 9 | Plant response rating, B. signalgrass (surinam grass; [4]): 0 | B. signalgrass plant response rating (surinam grass; [5]): 0 | B. signalgrass plant response rating (0 to 10 scale, 0 is no effect, 10 is complete control) (surinam grass; Preemergence, Rate 250 g/ha): 2 | Plant response rating, B. signalgrass (surinam grass; [7]): 2 | Corn plant response rating (corn; [1]): 0 | Corn plant response rating (corn; [2]): 2 | Plant response rating, Corn (corn; [3]): 5 | Plant response rating, Corn (corn; [4]): 0 | Corn plant response rating (corn; [5]): 0 | Corn plant response rating (0 to 10 scale) (corn; Preemergence, Rate 250 g/ha): 7 | Corn plant response rating (corn; [6]): 9 | Plant response rating, Corn (corn; [7]): 3 | Plant response rating, Bedstraw (bedstraw): 9 | Redroot pigweed plant response rating (pigweed; [1]): 0 | Redroot pigweed plant response rating (pigweed; [2]): 0 | Plant response rating, Redroot pigweed (pigweed; [3]): 0 | Plant response rating, Redroot pigweed (pigweed; [4]): 8 | Redroot pigweed plant response rating (pigweed; [5]): 8 | Redroot pigweed plant response rating (0 to 10 scale) (pigweed; Preemergence, Rate 250 g/ha): 8 | Plant response rating, Redroot pigweed (pigweed; [7]): 0 | Crabgrass plant response rating (crabgrass; [1]): 3 | Crabgrass plant response rating (crabgrass; [2]): 8 | Plant response rating, Crabgrass (crabgrass; [3]): 9 | Plant response rating, Crabgrass (crabgrass; [4]): 9 | Crabgrass plant response rating (crabgrass; [5]): 10 | Crabgrass plant response rating (0 to 10 scale) (crabgrass; Preemergence, Rate 250 g/ha): 9 | Crabgrass plant response rating (crabgrass; [6]): 10 | Plant response rating, Crabgrass (crabgrass; [7]): 8 | Wheat plant response rating (wheat; [1]): 0 | Wheat plant response rating (wheat; [2]): 0 | Plant response rating, Wheat (wheat; [3]): 5 | Plant response rating, Wheat (wheat; [4]): 0 | Wheat plant response rating (wheat; [5]): 5 | Wheat plant response rating (0 to 10 scale) (wheat; Preemergence, Rate 250 g/ha): 7 | Plant response rating, Wheat (wheat; [7]): 0 | Cocklebur plant response rating (cocklebur; [1]): 0 | Cocklebur plant response rating (cocklebur; [2]): 0 | Plant response rating, Cocklebur (cocklebur; [3]): 3 | Plant response rating, Cocklebur (cocklebur; [4]): 0 | Cocklebur plant response rating (cocklebur; [5]): 0 | Cocklebur plant response rating (0 to 10 scale) (cocklebur; Preemergence, Rate 250 g/ha): 0 | Cocklebur plant response rating (cocklebur; [6]): 2 | Plant response rating, Cocklebur (cocklebur; [7]): 0 | Soybean plant response rating (soybean; [1]): 3 | Plant response rating, Soybean (soybean; [3]): 4 | Plant response rating, Soybean (soybean; [4]): 0 | Soybean plant response rating (soybean; [5]): 0 | Soybean plant response rating (0 to 10 scale) (soybean; Preemergence, Rate 250 g/ha): 0 | Soybean plant response rating (soybean; [6]): 0 | Plant response rating, Soybean (soybean; [7]): 3 | Sugarbeets plant response rating (sugar beet; [1]): 0 | Sugarbeets plant response rating (sugar beet; [2]): 0 | Plant response rating, Sugarbeets (sugar beet; [3]): 0 | Plant response rating, Sugarbeets (sugar beet; [4]): 0 | Sugarbeets plant response rating (sugar beet; [5]): 3 | Sugarbeets plant response rating (0 to 10 scale) (sugar beet; Preemergence, Rate 250 g/ha): 6 | Plant response rating, Sugarbeets (sugar beet; [7]): 0

Source: patent publication US6737383B1, “Herbicidal oxadiazolidines” (priority 1999, dated 2004)
